The values below come from patent US20090215713A1, “Use of atp for the manufacture of a medicament for the prevention and treatment of oxidative stress and related conditions” (priority 2004, published 2009).

In one data set the test system is IL-10. The experiment in a line: LPS+PHA-induced IL-10 secretion in whole blood from healthy subjects (ELISA). The class given is cell-based, human. Conditions: indicated ATP concentrations, 24 h. The procedure:
FIG. 8 Effect of ATP on LPS+PHA-induced IL-10 secretion in whole blood from healthy subjects. The whole blood was exposed to 10 μg/ml LPS and 1 μg/ml PHA with indicated concentrations of ATP for 24 h. The IL-10 released into the supernatants was analyzed using the ELISA method. Results are expressed in percentage, 100% being the IL-10 release under stimulation by LPS+PHA without ATP. […] Data are expressed as the mean values; error bars represent SEM. *, different from control (stimulation by LPS+PHA without ATP) (P<0.05).
(§1) Blood was collected from 8 healthy subjects in heparin containing vacutainer tubes. All incubations were performed in duplicate. ATP was dissolved in RPMI 1640 culture medium, at a final concentration of 1-300 μM, and blood pre-incubated with ATP at 5% CO2 at 37 DC for 30 min. After stimulation with LPS en PHA (10 and 1 μg/ml final concentration, respectively), the plates were incubated in 5% CO2 at 37° C. for 24 h. Cell-free supernatant fluids were then collected by centrifugation (6000 rpm, 10 min at 4° C.) and stored at −20° C. until tested for presence of cytokines. All cytokines were quantified by means of PeliKine Compact human ELISA kits (CLB/Sanquin, The Netherlands), based on appropriate and validated sets of monoclonal antibodies.
Whole blood was collected and stimulated with LPS+PHA as described for Experiment 2. […]
In general terms: An ELISA detects its analyte on a solid surface through an enzyme-linked reagent.

Data set [1] can be described thus: ATP infusions in patients with chronic fatigue syndrome (double-blind). The class given is in vivo, human. The procedure: Patients with different diseases received infusions of 10-75 μg/kg·min over 8-24 h, at intervals of 1-4 weeks in different randomized clinical trials. In all cases, the first. infusion was given under clinical supervision, subsequent infusions were given in the setting of private homes. Preliminary results in small numbers of patients with persistent rheumatoid arthritis, chronic fatigue syndrome, and cancer in the pre-terminal stage, and lung cancer during curative radiotherapy are given below.
In a double-blind design, 8 out of 9 patients with chronic fatigue syndrome who had been treated with ATP (8 infusions of 24 h), spontaneously reported the following unexpected beneficial effects of ATP infusion: • less pain on the day after the infusion • feeling better during the 8-week infusion period than before or afterwards • more physical energy on the day after the infusion • felt better during the complete infusion period: less pain, better performance status, happier, mentally stronger, less tired, sleeping better • fewer ulcers during the infusion period • feeling less weak/feeble on the day after the infusion, feeling muscles “in a positive sense” In 5 out of 9 patients, these effects were already noted on the day after the first ATP infusion. […] In the placebo group, not even one out of 9 patients spontaneously reported any of such improvements.

In another data set the test system is TNFα. The experiment in a line: TNFα secretion in whole blood after γ-irradiation. Type of data set: cell-based. Conditions: 300 μM ATP, 16 Gy, 3 and 5 h post-irradiation. The procedure: FIG. 18 Effect of ATP on cytokine secretion in whole blood after γ-irradiation. Blood was pre-incubated with 300 μM ATP or medium (control) for 30 minutes and then irradiated with γ-radiation (16 Gy).
(§2) Samples with 5 ml of blood were pre-incubated with 300 μM ATP or medium (control) for 30 minutes. Then, at t=0, each blood sample was irradiated with γ-radiation at a dose of 16 Gy. Preceding irradiation (baseline) and at 1 h, 3 h and 5 h post-irradiation, a sample was taken for analysis of intracellular GSH and GSH/GSSG ratios according to standard methods, as well as for cytokine analysis by the ELISA method.

The nature of data set [2]: Randomized clinical trial of ATP in advanced non-small-cell lung cancer (prior art). The class given is in vivo, human. Conditions: unpublished data 2005.
Data set [3] can be described thus: ESR measurement of DMPO—OH spin adducts during Fenton chemistry. Type of data set: biochemical.
Method: The effect of ATP on the formation or scavenging of hydroxyl radicals, generated by Fenton reagents was measured as DMPO—OH spin adducts in ESR spectra. The ESR studies were performed at room temperature using a Bruker EMX 1273 spectrometer equipped with an ER 4119HS high sensitivity cavity and 12 kW power supply. The following instrument conditions were used: scan range, 60 G; center magnetic field, 3490 G; modulation amplitude, 1.0 G; microwave frequency, 9.86 GHz; time constant, 40.96 ms, scan time, 20.48 ms; number of scans, 50. OH radicals were generated by the Fenton reaction, and 5,5-dimethyl-1-pyrroline N-oxide (DMPO) was used for trapping hydroxyl radicals. Fifty microliters of 10 mM H2O2, 50 μl of 250 mM DMPO, 50 μl milliQ, 50 μl milliQ (control) or sample, and 50 μl 5 mM FeSO4/5 mM EDTA were mixed, and then transferred to a capillary glass tube. After 2 minutes, DMPO—OH spin adducts were measured by ESR. Quantification of the spectra was performed by peak integration using the WIN-EPR spectrum manipulation program.
Electron spin resonance (ESR) studies were performed at room temperature using a Bruker EMX 1273 spectrometer equipped with an ER 4119HS high sensitivity cavity and 12 kW power supply. The following instrument conditions were used: scan range, 60 G; center magnetic field, 3490 G; modulation amplitude, 1.0 G; microwave frequency, 9.86 GHz; time constant, 40.96 ms, scan time, 20.48 ms; number of scans, 50. OH radicals were generated by the Fenton reaction, and 5,5-Dimethyl-1-pyrroline N-oxide (DMPO) was used for trapping hydroxyl radicals. Fifty microliters of 10 mM H2O2, 50 μl 250 mM DMPO, 50 μl milliQ, 50 μl milliQ (blanco) or sample and 50 μl 5 mM FeSO4/5 mM EDTA were mixed, transferred to a capillary glass tube and the DMPO—OH spin adducts were measured after 2 minutes by ESR. Quantification of the spectra (in arbitrary units) was performed by peak integration using the WIN-EPR spectrum manipulation program.
For a further data set, the system named is IL-6. The experiment in a line: LPS+PHA-induced IL-6 secretion in whole blood from healthy subjects (ELISA). The class given is cell-based, human. The conditions noted are these: indicated ATP concentrations, 24 h. The procedure:
FIG. 9 Effect of ATP on LPS+PHA-induced IL-6 secretion in whole blood from healthy subjects. The whole blood was exposed to 10 μg/ml LPS and 1 μg/ml PHA with indicated concentrations of ATP for 24 h. The IL-6 released into the supernatants was analyzed using the ELISA method. Results are expressed in percentage, 100% being the IL-6 release under stimulation by LPS+PHA without ATP. […] Data are expressed at the mean values; error bars represent SEM.
as §1

The nature of data set [4]: Side effects of intravenous ATP infusions. The class given is in vivo, human. Conditions: over 60 home infusions in cancer patients. The procedure:
For reasons of patients' safety, there has been no attempt to administer ATP outside a strict medical setting to date. In particular, WO 03/061568 (Rapaport) discloses the administration of ATP over a period of typically 8-10 hours in an outpatient setting within the hospital. […] Thus, both our data and US 2003/0109486 contradict the disclosure of WO 03/061568.
In order to determine the tolerance for ATP as well as the maximally tolerated dose of ATP, the first ATP infusion is preferably administered under medical supervision, usually in an in- or outpatient setting. Subsequent infusions can either be started at the hospital day care centre, at private homes, nursing homes, etc. according to a standardized protocol.

The conditions of data set [5]: cited from earlier work.
Data set [6] has as its system mice bearing colon tumour. Conditions: daily intraperitoneal injections of 25 mmol/L for 10 days; cited from earlier work.
For the next data set, the system named is GSH and GSH/GSSG ratios. The experiment in a line: Intracellular GSH and GSH/GSSG ratios in whole blood after γ-irradiation. Type of data set: cell-based. Conditions: 300 μM ATP, 16 Gy. The procedure:
as §2

“Also recorded” adds a separate entry of the source.

For `Nc1ncnc2c1ncn2[C@@H]1O[C@H](COP(=O)(O)OP(=O)(O)OP(=O)(O)O)[C@@H](O)[C@H]1O` [ATP, Adenosine 5′-triphosphate], the “effect on LPS+PHA-induced IL-10 release” value in the data set with IL-10 is reported as “significantly increased”. The “patients spontaneously reporting beneficial effects” value in data set [1] (8 infusions of 24 h) is listed as 8 out of 9. Further, the “patients noting these effects on the day after the first ATP infusion” value in [1] (human, in vivo) is recorded as 5 out of 9. In addition, the “effect on irradiation-induced TNFα stimulation” value in the data set on TNFα is “completely blocked”. In data set [2], the “effect on blood sedimentation rate” value is listed as “neither an effect”. Also, in data set [3] (100 μM), the “effect on DMPO—OH spin adduct formation” value is listed as “significant inhibition”. Further, the “inhibition of the DMPO—OH spin adduct formation” value in data set [3] (highest concentration used (range 0.1 mM-10 mM)) was 80% and ≈ 80%. Also, the “effect on DMPO—OH spin adduct formation vs control (buffer)” value in data set [3] (representative ESR spectra, FIG. 1) is recorded as “strongly inhibited”. Moreover, in the data set with IL-6, the “effect on LPS+PHA-induced IL-6 release” value is recorded as “No effect; also recorded: not influenced”. The “serious side effects grade 3-4 on the WHO Common Toxicity Criteria scale” value in data set [4] is reported as “no serious side effects”. In addition, in data set [5] (Swennen et al. 2004), the “effect on plasma levels of pro- or anti-inflammatory cytokines” value is “neither an effect”. Further, the “loss of weight and muscle mass compared to a control group” value in [5] (regular infusions) is listed as “inhibited”. In data set [6], the “effect on host weight loss” value is reported as “significant inhibition”. The “effect on irradiation-induced decrease in GSH and GSH/GSSG ratios” value in the data set with GSH and GSH/GSSG ratios was “attenuation”.
